# Measured values as given in US12171854B2, “Heterocyclic-dithiol click chemistry” (Northeastern University, priority 2017, dated 2024).
# Where “and” joins values, the source holds several entries; their conditions need not be identical. Equal entries are not always repeated. Entries after “also recorded” stand apart in the source; their conditions may differ.
# Tests used:
# WT SOD1 [1] = target: T1, WT SOD1 (Homo sapiens, UniProt P00441); test: SOD1 cross-linking kinetics, mass spectrometry assay (percent covalent dimer); format: biochemical; details: for % of SOD1 cross-linked after 10 min of incubation: 50 μM SOD1, 1000 μM compound (20× excess), pH 7.4, 10 min; for binding to single Cys residues (free Cys111 and Cys6) of SOD1: any sample; for cross-linking of SOD1, result in words (FIG. 13): 1:1 ratio of SOD1 dimer:cross-linker
# T1 construct: made in house; host or cells: EGy118ΔSOD1 yeast, vector YEp-351
# From the text: The reaction was monitored using a mass spectrometry (MS) assay that uses a combination of increased voltage within the region of hypersonic gas expansion and brief treatment with 10% formic acid to create exclusively monomeric SOD1 or covalently cross-linked SOD1 dimer. Formic acid also quenches the reaction, transforming any reactive thiolates to unreactive thiols. As a result, if no reaction occurs, only apo SOD1 monomer is detected (FIG. 2, top). […] Given sufficient time for thiolates to be oxidized to sulfenic acid (which occurs on the order of days-weeks), even 1,2-dithiane was expected to cross-link SOD1. After 72 h of incubation with 1,2-dithiane, 11% of SOD1 had formed the expected covalent dimer (FIG. 5).
# Human WT SOD1 was expressed in yeast. […] Dilution in HPLC-Grade water to 1 mM cyclic disulfide was performed prior to experimentation. As a negative control, 50 μM human WT SOD1 was incubated at 37° C. with 4% HPLC-grade methanol. At every time point, 1 μL of each sample was removed from their respective reaction vial for analysis. Samples were briefly (˜30 seconds) incubated at room temperature with 10% formic acid to remove metals from SOD1 and quench cross-linking reaction prior to mass spectrometry analysis. Samples were then diluted to 1 μM SOD1 in 50:50 acetonitrile:water, 0.1% FA and analyzed by direct infusion into a Bruker SolariX XR FT-ICR mass spectrometer. The percent dimer formation was calculated by comparing the relative dimer (31,808 Da) and monomer (15,844 Da) MaxEnt deconvoluted peak heights (Dimer/(Dimer+Monomer)). Identical methods were used in the kinetics of α-lipoic acid and β-lipoic acid. Kinetics of 1,2-dithiepane vs. 1,2-dithiepane-1-oxide were performed at a 1:1 ratio of SOD1 dimer:cross-linker.
# C111S SOD1 = target: T2, C111S SOD1 (Homo sapiens, UniProt P00441, C112S); test: Localization of cross-link using point mutated C111S SOD1 (LC-MS); format: biochemical; details: 10 μM SOD1, 100 μM compound, overnight, room temperature
# T2 construct: made in house; host or cells: EGy118ΔSOD1 yeast, vector YEp-351
# Procedure: Aliquots from each of the SOD1 incubations were individually diluted ten-fold with H2O containing 0.1% formic acid and analyzed using reversed phase C18 LC-MS on a Bruker HCT Ultra ion trap. The resulting data were processed using DataAnalysis 3.4 (Bruker Daltonics). Mass spectra were averaged across the retention times corresponding to when SOD1 eluted and were deconvoluted to determine the molecular weight of the uncharged species.
# WT SOD1 [2] = target: T1, WT SOD1; test: In vitro glutathione competition assay; format: biochemical
# Procedure: Purified WT SOD1 was diluted to 10 μM in 10 mM ammonium acetate, pH 7.4. […] Samples were briefly (30 seconds) incubated at room temperature with 10% formic acid to remove metals from SOD1 prior to mass spectrometry analysis. Samples were then diluted to 1 μM SOD1 in 50:50 acetonitrile:water, 0.1% FA and analyzed by direct infusion into a Bruker Solarix XR FT-ICR mass spectrometer. The percent dimer formation was calculated by comparing the relative dimer (31,808 Da) and monomer (15,844 Da) MaxEnt deconvoluted peak heights (Dimer/(Dimer+Monomer))
# WT SOD1 [3] = target: T1, WT SOD1; test: In vitro DTT competition assay; format: biochemical; details: 1:1 cross-linker:DTT (equimolar), 24 h, 37° C.
# Procedure: Purified WT SOD1 was diluted to 50 μM in 10 mM ammonium acetate, pH 7.4. […] DTT solutions were made in 100% HPLC grade H2O. DTT solution concentrations were 1 mM, 2 mM and 4 mM. Samples were left to incubate at 37° C. for 24 h. Samples were then diluted to 1 μM SOD1 in 50:50 acetonitrile:water, 0.1% FA and analyzed by direct infusion into a Bruker Solarix XR FT-ICR mass spectrometer
# SOD1 in Hep G2 cells = target: T3, SOD1 in Hep G2 cells (Homo sapiens, UniProt P00441); test: SOD1 cross-linking in Hep G2 cells, western blot; format: cell-based; details: for cross-linking of SOD1 in cells, result in words: Hep G2 cells, increasing concentrations, compared with α-lipoic acid
# T3 construct: endogenous in cells; host or cells: Hep G2
# Procedure: Hep G2 cells were cultures in DMEM with 10% fetal bovine serum and penicillin/streptomycin in 96 well Costar® Corning CellBIND plate with 5% CO2 at 37° C. The cells were cultured to monolayer confluency. […] Stocks were diluted twenty-fold in 1×PBS (final DMSO 5%). Cells were treated with 200 uL of compound and incubated for 30 minutes at 37° C. 5% CO2. Cells were washed with 1×PBS and 20 μL of 6× nonreducing sample buffer was added to each well. The 96 well plate was heated to 90° C. for 10 minutes. Samplers were spun at 14000 RPM for 5 minutes in a Beckman Coulter Microfuge®18 centrifuge. Samples were run using a Bio Rad Mini-Protean electrophoresis chamber on 12% precast TGX polyacrylamide gels at 150V. After separation was complete, gels were extracted from the cassettes and incubated in an in-house transfer buffer for 10 minutes are 90° C. to ensure thorough transfer of protein bands and thorough binding of antibody (25 mM Tris, 192 mM glycine, 10 mM 2-mercaptoethanol, 0.1% SDS). Transfer was performed with a Bio Rad Trans-blot turbo transfer system using a trans-clot turbo transfer pack. Membranes were dried, blocked with 5% milk for 2 h at room temperature. Membranes were then probed with primary antibody, anti-SOD1 antibody SOD100 overnight at 4° C. Membranes are incubated with HRP-labeled secondary antibodies and visualized using ECL Western Blotting Substrate and imaged using the ChemiDoc MP.
# SOD1 in HeLa cells = target: T4, SOD1 in HeLa cells (Homo sapiens, UniProt P00441); test: SOD1 cross-linking in HeLa cells, western blot; format: cell-based; details: EC50 for cross-linking of SOD1, HeLa cells
# T4 construct: endogenous in cells; host or cells: HeLa
# Procedure: HeLa cells were cultured in DMEM with 10% fetal bovine serum and penicillin/streptomycin in 24 well Costar® Corning CellBIND plate with 5% CO2 at 37° C. The cells were cultured to monolayer confluency. […] The 100 mM solution diluted to various concentrations with 1×PBS solution. 1 mL of solutions was added to the HeLa cells in the 24 well plate. […] Cells were washed 2× with 1 mL PBS. After removing the second PBS wash, the cells were then treated with 6× non-reducing SDS sample buffer and collected. The collected cell lysate was divided into two parts. One half was treated with 5% β-ME, to remove bound cyclic disulfides, as negative controls. The other half was treated with equal amount of milliQ water. All the cell lysate samples were then heated at 80° C. for 10 minutes in an Eppendorf Thermomixer. The samples were spun at 14000 rpm for 5 minutes in Beckman Coulter Microfuge centrifuge. HeLa cell extracts were separated on 12% SDS-polyacrylamide TrisHCl gels run at 80 V at room temperature. Proteins were transferred to nitrocellulose membranes for Western blotting. Monomer and covalently-linked dimer SOD1 were detected using the rabbit polyclonal anti-SOD1 antibody SOD100. Membranes are incubated with HRP-labeled secondary antibodies and visualized using ECL Western Blotting Substrate and imaged using the ChemiDoc MP.
# SH-SY5Y cells = format: cell-based; details: 24 h
# Procedure: Human immortalized neuroblastoma cells (SH-SY5Y) were purchased from ATCC (Manassas, Virginia, USA). Cells were grown in Eagle's Minimum Essential Medium (EMEM) supplemented with 10% fetal bovine serum at 37° C. and 5% CO2 to >70% confluency. […] Following incubation with 1,2-dithaine-1-oxide, 22 μL of PrestoBlue® was added to each well and allowed to incubate for 10 min at 37° C. Excitation/emission was measured at 560/590 (in nm) using an Infinite® 200 plate reader (Tecan, Mannedorf, Switzerland). Cell viability was quantified relative to untreated cells.
# [4] = with reduced glutathione; cited from earlier work
# [5] = 50 μM SOD1, 20× excess compound
# [6] = 10× compound and 100× reduced glutathione
# T1 sequence (P00441 2-154 limits assumed): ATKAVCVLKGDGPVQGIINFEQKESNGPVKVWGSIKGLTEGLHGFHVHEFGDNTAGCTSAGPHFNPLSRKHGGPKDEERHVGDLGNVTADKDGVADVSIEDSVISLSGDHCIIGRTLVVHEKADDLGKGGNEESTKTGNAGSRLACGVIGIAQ
# T3 sequence (P00441 2-154 limits assumed): as above
# T4 sequence (P00441 2-154 limits assumed): as above
# T2 sequence (P00441 2-154 C112S limits assumed): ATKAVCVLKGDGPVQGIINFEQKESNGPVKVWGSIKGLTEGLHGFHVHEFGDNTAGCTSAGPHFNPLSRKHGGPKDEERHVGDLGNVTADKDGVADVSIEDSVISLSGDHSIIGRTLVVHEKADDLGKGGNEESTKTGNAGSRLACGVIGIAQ
molecule,measurement,setting,value
"[O-][S+]1CCCCS1 (stereo not shown) [1,2-dithiane-1-oxide]",% of SOD1 cross-linked after 10 min of incubation,WT SOD1 [1]; 37° C.,95%
same,"cross-linking of SOD1, result in words",WT SOD1 [1]; [5],rapid and complete dithiolate cross-linking
same,binding to single Cys residues (free Cys111 and Cys6) of SOD1,WT SOD1 [1],no binding to single Cys residues
same,overall second order rate constant of cross-linking product formation,"WT SOD1 [1]; multi-concentration kinetics, protocol of Singh et al.",250 M⁻¹ s⁻¹
same,covalent dimer formation with C111S SOD1,C111S SOD1,No cross-linking was observed; also recorded: no covalent dimer formation
same,"cross-linking of SOD1 in the presence of glutathione, result in words",WT SOD1 [2]; 10:1 ratio of glutathione:compound,proceeded to completion; also recorded: can efficiently cross-link SOD1
same,cross-linking yield in the presence of glutathione,WT SOD1 [2]; [6],100%
same,rate of cross-linking in the presence of glutathione,WT SOD1 [2]; [6],decreased
same,"cross-linking of SOD1 in the presence of DTT, result in words",WT SOD1 [3],proceeded to completion; also recorded: ability to cross-link the thiol pair of SOD1
same,EC50,"SOD1 in Hep G2 cells; EC50 for cross-linking of SOD1, Hep G2 cells, 30 min incubation, western blot",~5 µM and 1 to 5 µM
same,EC50,SOD1 in HeLa cells,~5 µM and 1 to 5 µM
same,"concentration at which cell viability is equivalent to untreated cells, relative to EC50",SH-SY5Y cells,50 fold
"C1CCSSC1 [1,2-dithiane]",% of SOD1 cross-linked after 10 min of incubation,WT SOD1 [1]; 37° C.,0%
same,"cross-linking of SOD1, result in words",WT SOD1 [1]; [5],slow cross-link formation
same,% of SOD1 forming covalent dimer after three days (72 h),"WT SOD1 [1]; 50 μM SOD1, 20× excess compound, 37° C., 72 h",11%
same,binding to single Cys residues (free Cys111 and Cys6) of SOD1,WT SOD1 [1],no binding to single Cys residues
"[O-][S+]1CCCCCS1 (stereo not shown) [1,2-dithiepane-1-oxide]","cross-linking of SOD1, result in words (FIG. 13)",WT SOD1 [1],rapid and complete cross-link of SOD1
"C1CCSSCC1 [1,2-dithiepane]","cross-linking of SOD1, result in words (FIG. 13)",WT SOD1 [1],does not
"[O-][S+]1CCCCCCS1 (stereo not shown) [1,2-dithiocane-1-oxide]","cross-linking of SOD1, result in words (FIG. 15)",WT SOD1 [1],rapid and complete cross-link of SOD1
"C1CCCSSCC1 [1,2-dithiocane]","cross-linking of SOD1, result in words (FIG. 15)",WT SOD1 [1],does not
OC1CSSCC1O (stereo not shown) [oxidized DTT],extrapolated half-life of thiol-disulfide exchange,[4],> 3.33 h
β-lipoic acid,"rate and extent of covalent cross-linking of SOD1 versus α-lipoic acid, in words",WT SOD1 [1]; mass spectrometry assay,Both rate and extent of covalent cross-linking of SOD1 is increased
same,more SOD1 cross-linked in vitro compared to ALA,"WT SOD1 [1]; mass spectrometry assay, compared to ALA",30%
same,"cross-linking of SOD1 in cells, result in words",SOD1 in Hep G2 cells,"cross-links SOD1 in Hep G2 cells, and does so more efficiently than the cyclic disulfide, α-lipoic acid"
same,"cross-linking of SOD1 in cells, result in words",SOD1 in Hep G2 cells; listed as BLA,cross-linked SOD1 in cells
